Measurements: PubChem BioAssay AID330 (DTP/NCI, 2004)
Several values for one entry are separate records, joined by “and”; a condition that tells them apart may be missing. Equal values may be shown once. Toxic doses and inconclusive results are not listed.

Test system: P388 leukemia ip, CD2F1 mice, survival T/C
Assay: NCI In Vivo Anticancer Drug Screen. Data for tumor model P388 Leukemia (intraperitoneal) in CD2F1 (CDF1) mice
Details: endpoint: median survival time, higher = longer survival
Outline: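 Mice carrying the transplanted tumor received test compound or vehicle. Survival was recorded in each group, and the value is the treated-group measurement divided by that of the vehicle-treated control group.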

[1] = dose: 50.0 mg/kg/injection, schedule: Q01DX009 (ip), vehicle: saline with Tween-80
[2] = dose: 100.0 mg/kg/injection, schedule: Q01DX009 (ip), vehicle: saline with Tween-80
[3] = dose: 200.0 mg/kg/injection, schedule: Q01DX009 (ip), vehicle: saline with Tween-80
[4] = dose: 400.0 mg/kg/injection, schedule: Q01DX009 (ip), vehicle: saline with Tween-80
[5] = dose: 1.56 mg/kg/injection, schedule: Q01DX009 (ip), vehicle: Klucel (hydroxypropylcellulose) (HPC)
[6] = dose: 6.25 mg/kg/injection, schedule: Q01DX009 (ip), vehicle: Klucel (hydroxypropylcellulose) (HPC)
[7] = dose: 12.5 mg/kg/injection, schedule: Q01DX009 (ip), vehicle: Klucel (hydroxypropylcellulose) (HPC)
[8] = dose: 25.0 mg/kg/injection, schedule: Q01DX009 (ip), vehicle: Klucel (hydroxypropylcellulose) (HPC)
[9] = dose: 50.0 mg/kg/injection, schedule: Q01DX009 (ip), vehicle: Klucel (hydroxypropylcellulose) (HPC)
[10] = dose: 100.0 mg/kg/injection, schedule: Q01DX009 (ip), vehicle: Klucel (hydroxypropylcellulose) (HPC)
[11] = dose: 25.0 mg/kg/injection, schedule: Q04DX003 (ip), vehicle: saline with Tween-80
[12] = dose: 50.0 mg/kg/injection, schedule: Q04DX003 (ip), vehicle: saline with Tween-80
[13] = dose: 100.0 mg/kg/injection, schedule: Q04DX003 (ip), vehicle: saline with Tween-80
[14] = dose: 50.0 mg/kg/injection, schedule: Q01DX005 (ip), vehicle: Klucel (hydroxypropylcellulose) (HPC)
[15] = dose: 100.0 mg/kg/injection, schedule: Q01DX005 (ip), vehicle: Klucel (hydroxypropylcellulose) (HPC)
[16] = dose: 200.0 mg/kg/injection, schedule: Q01DX005 (ip), vehicle: Klucel (hydroxypropylcellulose) (HPC)
[17] = dose: 60.0 mg/kg/injection, schedule: Q01DX005 (ip), vehicle: Klucel (hydroxypropylcellulose) (HPC)
[18] = dose: 120.0 mg/kg/injection, schedule: Q01DX005 (ip), vehicle: Klucel (hydroxypropylcellulose) (HPC)
[19] = dose: 240.0 mg/kg/injection, schedule: Q01DX005 (ip), vehicle: Klucel (hydroxypropylcellulose) (HPC)
[20] = dose: 25.0 mg/kg/injection, schedule: Q01DX005 (ip), vehicle: Klucel (hydroxypropylcellulose) (HPC)
[21] = dose: 50.0 mg/kg/injection, schedule: Q01DX005 (ip), vehicle: saline
[22] = dose: 100.0 mg/kg/injection, schedule: Q01DX005 (ip), vehicle: saline
[23] = dose: 200.0 mg/kg/injection, schedule: Q01DX005 (ip), vehicle: saline
[24] = dose: 50.0 mg/kg/injection, schedule: Q01DX009 (ip), vehicle: saline
[25] = dose: 100.0 mg/kg/injection, schedule: Q01DX009 (ip), vehicle: saline
[26] = dose: 200.0 mg/kg/injection, schedule: Q01DX009 (ip), vehicle: saline

NC(Cc1c[nH]c2ccc([N+](=O)[O-])cc12)C(=O)O (stereo unspecified)
T/C [1]: 92 % of control
T/C [2]: 91 % of control
T/C [3]: 94 % of control
T/C [4]: 91 % of control

CC(=O)OCC1OC(n2cc(F)c(=O)[nH]c2=O)C(OC(C)=O)C1OC(C)=O (stereo unspecified)
T/C [5]: 110 % of control
T/C [6]: 151 % of control
T/C [7]: 108 % of control
T/C [8]: 89 % of control
T/C [9]: 89 % of control
T/C [10]: 88 % of control

COC(=O)NC(=S)Nc1nncs1
T/C [11]: 101 % of control
T/C [12]: 105 % of control
T/C [13]: 105 % of control

O=C1CCC([N+](=O)[O-])C(c2ccccc2)N1 (stereo unspecified)
T/C [1]: 100 % of control

Nc1nc(=S)c2[nH]c(=S)[nH]c2[nH]1
T/C [11]: 118 % of control
T/C [12]: 118 % of control
T/C [2]: 118 % of control
T/C [13]: 118 % of control
T/C (dose: 264.0 mg/kg/injection, schedule: Q04DX003 (ip), vehicle: saline with Tween-80): 150 % of control
T/C [4]: 113 % of control
T/C (dose: 600.0 mg/kg/injection, schedule: Q04DX003 (ip), vehicle: saline with Tween-80): 150 % of control

Cc1ccc(NC(=O)NNC(=O)CSC2CCc3ccccc32)c(C)c1 (stereo unspecified)
T/C [14]: 92 % of control
T/C [15]: 92 % of control
T/C [16]: 90 % of control

C#CCSc1n[nH]c(-c2ccco2)n1
T/C (dose: 60.0 mg/kg/injection, schedule: Q01DX005 (ip), vehicle: saline with Tween-80): 101 % of control
T/C (dose: 120.0 mg/kg/injection, schedule: Q01DX005 (ip), vehicle: saline with Tween-80): 105 % of control
T/C (dose: 240.0 mg/kg/injection, schedule: Q01DX005 (ip), vehicle: saline with Tween-80): 105 % of control

O=C1C=CC2(CC(O)OC3=C2C(=O)c2oc4cc(O)c(O)cc4c2C3=O)O1 (stereo unspecified)
T/C (dose: 10.0 mg/kg/injection, schedule: Q01DX009 (ip), vehicle: Klucel (hydroxypropylcellulose) (HPC)): 102 % of control
T/C (dose: 20.0 mg/kg/injection, schedule: Q01DX009 (ip), vehicle: Klucel (hydroxypropylcellulose) (HPC)): 109 % of control
T/C (dose: 40.0 mg/kg/injection, schedule: Q01DX009 (ip), vehicle: Klucel (hydroxypropylcellulose) (HPC)): 105 % of control
T/C (dose: 80.0 mg/kg/injection, schedule: Q01DX009 (ip), vehicle: Klucel (hydroxypropylcellulose) (HPC)): 111 % of control

CN(C=O)c1ccc(C(=O)NC(CCC(=O)O)C(=O)O)cc1 (stereo unspecified)
T/C [17]: 98 % of control
T/C [18]: 98 % of control
T/C [19]: 89 % of control

CCOC(=O)C1=C(C)/C(=C/c2[n-]c(Cl)c(C)c2C(=O)OCC)N=C1C.CCOC(=O)C1=C(C)/C(=C/c2[n-]c(Cl)c(C)c2C(=O)OCC)N=C1C.[Ni+2]
T/C [14]: 102 % of control
T/C [15]: 114 % of control
T/C [16]: 102 % of control

CC(NC(=O)/C=C/c1ccco1)C(=O)NC(Cc1ccccc1)C(N)=O (stereo unspecified)
T/C [14]: 104 % of control
T/C [15]: 106 % of control
T/C [16]: 104 % of control

O=c1[nH]nc(SCc2c(Cl)cccc2Cl)c(=O)[nH]1
T/C [20]: 95 % of control
T/C [14]: 93 % of control
T/C [15]: 111 % of control
T/C [16]: 95 % of control

O=C(O)CNCCCCCCNCC(=O)O
T/C [21]: 98 % of control
T/C [22]: 103 % of control
T/C [23]: 106 % of control

CC(C)=CCCC(C)C1(O)CCC(C)=CC1=O (stereo unspecified)
T/C (dose: 12.5 mg/kg/injection, schedule: Q01DX005 (ip), vehicle: Klucel (hydroxypropylcellulose) (HPC)): 96 % of control
T/C [20]: 99 % of control
T/C [14]: 94 % of control
T/C [15]: 99 % of control

CN1C2=CC3(OC2C(C)(C)c2ccccc21)N(C)c1ccccc1C3(C)C (stereo unspecified)
T/C [17]: 93 % of control
T/C [18]: 92 % of control
T/C [19]: 93 % of control

NC1[N-]C(C2CCCC[N-]2)CC2C(Cl)CCCC12.O=[N+]([O-])O.O=[N+]([O-])O.[Cu+2] (stereo unspecified)
T/C (dose: 6.25 mg/kg/injection, schedule: Q04DX002 (ip), vehicle: suspension in saline): 101 % of control
T/C (dose: 12.5 mg/kg/injection, schedule: Q04DX002 (ip), vehicle: suspension in saline): 111 % of control

NNC(=O)CCc1ccccc1Br
T/C [1]: 100 % of control and 90 % of control
T/C [12]: 104 % of control
T/C [2]: 100 % of control
T/C [13]: 90 % of control
T/C [3]: 95 % of control
T/C (dose: 200.0 mg/kg/injection, schedule: Q04DX003 (ip), vehicle: saline with Tween-80): 90 % of control

CCCC(=O)NC1C(Nc2ccc(S(=O)(=O)Nc3nc(C)cc(C)n3)cc2)OC(CO)C(O)C1O (stereo unspecified)
T/C [21]: 97 % of control
T/C [22]: 92 % of control
T/C [23]: 99 % of control

CC(C)(C)N1COCCOC1
T/C [2]: 118 % of control

OCC1OC(OC2C3CSC(O3)C(O)C2O)C(O)C(O)C1O (stereo unspecified)
T/C [24]: 105 % of control
T/C [25]: 106 % of control
T/C [26]: 106 % of control

CCCCn1cnc2c(cnn2C)c1=N
T/C (dose: 100.0 mg/kg/injection, schedule: Q04DX002 (ip), vehicle: saline): 97 % of control
T/C (dose: 200.0 mg/kg/injection, schedule: Q04DX002 (ip), vehicle: saline): 97 % of control

CC(C)C(N)CO (stereo unspecified)
T/C [24]: 107 % of control
T/C [25]: 106 % of control
T/C [26]: 100 % of control

CCCCCn1c(Cl)c(C=O)c2ccccc21
T/C (dose: 100.0 mg/kg/injection, schedule: Q04DX002 (ip), vehicle: Klucel (hydroxypropylcellulose) (HPC)): 97 % of control
T/C (dose: 200.0 mg/kg/injection, schedule: Q04DX002 (ip), vehicle: Klucel (hydroxypropylcellulose) (HPC)): 98 % of control
T/C (dose: 400.0 mg/kg/injection, schedule: Q04DX002 (ip), vehicle: Klucel (hydroxypropylcellulose) (HPC)): 100 % of control

N#CC(C#N)=C(c1ccccc1)c1ccccc1
T/C [9]: 95 % of control
T/C [10]: 110 % of control
T/C (dose: 200.0 mg/kg/injection, schedule: Q01DX009 (ip), vehicle: Klucel (hydroxypropylcellulose) (HPC)): 100 % of control

CC1(C)c2ccccc2-c2nc3ccccc3nc2C1O (stereo unspecified)
T/C (dose: 100.0 mg/kg/injection, schedule: Q04DX003 (ip), vehicle: Klucel (hydroxypropylcellulose) (HPC)): 110 % of control
T/C (dose: 200.0 mg/kg/injection, schedule: Q04DX003 (ip), vehicle: Klucel (hydroxypropylcellulose) (HPC)): 99 % of control
T/C (dose: 400.0 mg/kg/injection, schedule: Q04DX003 (ip), vehicle: Klucel (hydroxypropylcellulose) (HPC)): 112 % of control

Cc1c2ccncc2c(CNC(=O)C(N)Cc2c[nH]c3ccccc23)c2c3ccccc3n(C)c12 (stereo unspecified)
T/C (dose: 6.25 mg/kg/injection, schedule: Q04DX002 (ip), vehicle: saline with Tween-80): 108 % of control
T/C (dose: 12.5 mg/kg/injection, schedule: Q04DX002 (ip), vehicle: saline with Tween-80): 112 % of control
T/C (dose: 25.0 mg/kg/injection, schedule: Q04DX002 (ip), vehicle: saline with Tween-80): 115 % of control
T/C (dose: 50.0 mg/kg/injection, schedule: Q04DX002 (ip), vehicle: saline with Tween-80): 117 % of control

COc1cc2c(c(OC)c1OC)-c1ccc(S(C)(=O)=O)c(=O)cc1[C@@H](NC(C)=O)CC2
T/C (dose: 0.78 mg/kg/injection, schedule: Q01DX009 (ip), vehicle: Klucel (hydroxypropylcellulose) (HPC)): 105 % of control and 106 % of control
T/C [5]: 105 % of control and 120 % of control
T/C (dose: 3.12 mg/kg/injection, schedule: Q01DX009 (ip), vehicle: Klucel (hydroxypropylcellulose) (HPC)): 106 % of control and 111 % of control
T/C [6]: 115 % of control
T/C [7]: 105 % of control and 122 % of control
T/C [8]: 108 % of control

OC(c1cc(-c2ccccc2)nc2ccc(Cl)cc12)C1CCCCN1 (stereo unspecified)
T/C (dose: 50.0 mg/kg/injection, schedule: Q01DX005 (ip), vehicle: saline with Tween-80): 97 % of control
T/C (dose: 100.0 mg/kg/injection, schedule: Q01DX005 (ip), vehicle: saline with Tween-80): 90 % of control
T/C (dose: 200.0 mg/kg/injection, schedule: Q01DX005 (ip), vehicle: saline with Tween-80): 99 % of control
